Species on record: Rattus norvegicus
Assay: Open TG-GATES - Regimen: Single
Format: toxicity, organism-based, Sprague-Dawley
Parameters: regimen Single, gender Male, age 6 weeks
Details: in vivo, iv, route intravenous injection; for APTT / Bas / Eos / Fbg / Hb / Ht / Lym / MCH / MCHC / MCV / Mono / Neu / PT / Plat / RBC / Ret / WBC: tissue Blood; for KIDNEY_L / KIDNEY_R / KIDNEY_TOTAL: tissue Kidney; for LIVER: tissue Liver; for A/G / ALP / ALT / AST / BUN / CRE / Ca / Cl / DBIL / GLC / IP / K / LDH / Na / PL / RALB / TBIL / TC / TG / TP / gamma-GTP: tissue Plasma
[1] = 20 mg/kg, 3 h, dose level Middle
[2] = 20 mg/kg, 6 h, dose level Middle
[3] = 20 mg/kg, 9 h, dose level Middle
[4] = 20 mg/kg, 24 h, dose level Middle
[5] = 60 mg/kg, 24 h, dose level High

## NCCBr [BROMOETHANAMINE]
[1]
  TERMINAL_BW: 213.1 g
  APTT: 23.3 s
  Bas: 0%
  Eos: 0.8%
  Fbg: 304 mg/dL
  Hb: 13.6 g/dL
  Ht: 39.3%
  Lym: 77.8%
  MCH: 21.5 pg
  MCHC: 34.7%
  MCV: 61.9 fL
  Mono: 2.2%
  Neu: 18.8%
  PT: 16.2 s
  Plat: 141.3 x10_4/uL
  RBC: 635 x10_4/ul
  Ret: 5.8%
  WBC: 60.9 x10_2/uL
  KIDNEY_L: 0.9 g
  KIDNEY_R: 0.9 g
  KIDNEY_TOTAL: 1.9 g
  LIVER: 9.4 g
  A/G: 1.2
  ALP: 1554.2 IU/L
  ALT: 41.2 IU/L
  AST: 67.2 IU/L
  BUN: 11.6 mg/dL
  CRE: 0.1 mg/dL
  Ca: 10.8 mg/dL
  Cl: 105 meq/L
  DBIL: 0 mg/dL
  GLC: 189.8 mg/dL
  IP: 9.8 mg/dL
  K: 3.8 meq/L
  LDH: 210 IU/L
  Na: 143.2 meq/L
  PL: 130.8 mg/dL
  RALB: 3.1 g/dL
  TBIL: 0.014 mg/dL
  TC: 79.4 mg/dL
  TG: 50.2 mg/dL
  TP: 5.7 g/dL
  gamma-GTP: 1.6 IU/L
[2]
  TERMINAL_BW: 214.7 g
  APTT: 23.7 s
  Bas: 0%
  Eos: 1%
  Fbg: 308.8 mg/dL
  Hb: 13.5 g/dL
  Ht: 39.4%
  Lym: 74.4%
  MCH: 21.6 pg
  MCHC: 34.3%
  MCV: 63 fL
  Mono: 2.2%
  Neu: 21.4%
  PT: 16.1 s
  Plat: 126.9 x10_4/uL
  RBC: 624.6 x10_4/ul
  Ret: 6.1%
  WBC: 83.3 x10_2/uL
  KIDNEY_L: 1 g
  KIDNEY_R: 1 g
  KIDNEY_TOTAL: 2 g
  LIVER: 8.8 g
  A/G: 1.2
  ALP: 1286 IU/L
  ALT: 34.2 IU/L
  AST: 68.6 IU/L
  BUN: 9.8 mg/dL
  CRE: 0.2 mg/dL
  Ca: 10.5 mg/dL
  Cl: 105.8 meq/L
  DBIL: 0 mg/dL
  GLC: 183.4 mg/dL
  IP: 9.9 mg/dL
  K: 4.2 meq/L
  LDH: 183.2 IU/L
  Na: 142 meq/L
  PL: 117.2 mg/dL
  RALB: 2.9 g/dL
  TBIL: 0.026 mg/dL
  TC: 74.4 mg/dL
  TG: 28.8 mg/dL
  TP: 5.5 g/dL
  gamma-GTP: 1.6 IU/L
[3]
  TERMINAL_BW: 205.7 g
  APTT: 23.8 s
  Bas: 0%
  Eos: 0.6%
  Fbg: 343 mg/dL
  Hb: 13.9 g/dL
  Ht: 40%
  Lym: 74.4%
  MCH: 21 pg
  MCHC: 34.7%
  MCV: 60.5 fL
  Mono: 3%
  Neu: 21.2%
  PT: 15.9 s
  Plat: 121.7 x10_4/uL
  RBC: 662.2 x10_4/ul
  Ret: 5.5%
  WBC: 69.4 x10_2/uL
  KIDNEY_L: 1 g
  KIDNEY_R: 1 g
  KIDNEY_TOTAL: 2 g
  LIVER: 8.4 g
  A/G: 1.1
  ALP: 1380.4 IU/L
  ALT: 32.6 IU/L
  AST: 63 IU/L
  BUN: 12.2 mg/dL
  CRE: 0.2 mg/dL
  Ca: 10.6 mg/dL
  Cl: 105.4 meq/L
  DBIL: 0 mg/dL
  GLC: 187 mg/dL
  IP: 9.4 mg/dL
  K: 3.7 meq/L
  LDH: 170.6 IU/L
  Na: 142.8 meq/L
  PL: 139 mg/dL
  RALB: 3 g/dL
  TBIL: 0.018 mg/dL
  TC: 80.2 mg/dL
  TG: 66.2 mg/dL
  TP: 5.8 g/dL
  gamma-GTP: 1.2 IU/L
[4]
  TERMINAL_BW: 213.8 g
  APTT: 22.4 s
  Bas: 0%
  Eos: 0.8%
  Fbg: 384.6 mg/dL
  Hb: 13.9 g/dL
  Ht: 40.7%
  Lym: 80.8%
  MCH: 21.1 pg
  MCHC: 34%
  MCV: 61.9 fL
  Mono: 2.6%
  Neu: 15%
  PT: 16.4 s
  Plat: 123.2 x10_4/uL
  RBC: 659.2 x10_4/ul
  Ret: 4.9%
  WBC: 85.8 x10_2/uL
  KIDNEY_L: 1 g
  KIDNEY_R: 1 g
  KIDNEY_TOTAL: 2 g
  LIVER: 9.5 g
  A/G: 1.1
  ALP: 1544 IU/L
  ALT: 41.8 IU/L
  AST: 69.8 IU/L
  BUN: 25.6 mg/dL
  CRE: 0.2 mg/dL
  Ca: 11 mg/dL
  Cl: 105.6 meq/L
  DBIL: 0.002 mg/dL
  GLC: 190.4 mg/dL
  IP: 6.7 mg/dL
  K: 4.2 meq/L
  LDH: 200.8 IU/L
  Na: 142.8 meq/L
  PL: 152.2 mg/dL
  RALB: 3 g/dL
  TBIL: 0.012 mg/dL
  TC: 89.6 mg/dL
  TG: 89 mg/dL
  TP: 5.7 g/dL
  gamma-GTP: 2.2 IU/L
60 mg/kg, 3 h, dose level High
  TERMINAL_BW: 212.4 g
  APTT: 23.5 s
  Bas: 0%
  Eos: 0.6%
  Fbg: 312.8 mg/dL
  Hb: 14.4 g/dL
  Ht: 41.9%
  Lym: 70.8%
  MCH: 21.8 pg
  MCHC: 34.5%
  MCV: 63.3 fL
  Mono: 2.4%
  Neu: 25.4%
  PT: 16.1 s
  Plat: 131.5 x10_4/uL
  RBC: 661.2 x10_4/ul
  Ret: 6%
  WBC: 39.6 x10_2/uL
  KIDNEY_L: 0.9 g
  KIDNEY_R: 1 g
  KIDNEY_TOTAL: 1.9 g
  LIVER: 9.3 g
  A/G: 1.2
  ALP: 1494.4 IU/L
  ALT: 47 IU/L
  AST: 56.8 IU/L
  BUN: 13.4 mg/dL
  CRE: 0.1 mg/dL
  Ca: 10.7 mg/dL
  Cl: 106.8 meq/L
  DBIL: 0.002 mg/dL
  GLC: 166.2 mg/dL
  IP: 10.5 mg/dL
  K: 4.1 meq/L
  LDH: 321.8 IU/L
  Na: 143.4 meq/L
  PL: 141 mg/dL
  RALB: 3.1 g/dL
  TBIL: 0.014 mg/dL
  TC: 85.4 mg/dL
  TG: 46.4 mg/dL
  TP: 5.9 g/dL
  gamma-GTP: 1 IU/L
60 mg/kg, 6 h, dose level High
  TERMINAL_BW: 208.7 g
  APTT: 23.1 s
  Bas: 0%
  Eos: 0.6%
  Fbg: 325.6 mg/dL
  Hb: 14.2 g/dL
  Ht: 40.9%
  Lym: 74.2%
  MCH: 20.9 pg
  MCHC: 34.8%
  MCV: 60.1 fL
  Mono: 1.6%
  Neu: 23.2%
  PT: 16.1 s
  Plat: 136 x10_4/uL
  RBC: 681 x10_4/ul
  Ret: 5.4%
  WBC: 35.9 x10_2/uL
  KIDNEY_L: 1 g
  KIDNEY_R: 1 g
  KIDNEY_TOTAL: 2 g
  LIVER: 9.1 g
  A/G: 1.2
  ALP: 1401.4 IU/L
  ALT: 39.2 IU/L
  AST: 54.2 IU/L
  BUN: 15.6 mg/dL
  CRE: 0.1 mg/dL
  Ca: 10.6 mg/dL
  Cl: 101.4 meq/L
  DBIL: 0.004 mg/dL
  GLC: 201 mg/dL
  IP: 10.2 mg/dL
  K: 4 meq/L
  LDH: 362.4 IU/L
  Na: 142 meq/L
  PL: 133 mg/dL
  RALB: 3.2 g/dL
  TBIL: 0.01 mg/dL
  TC: 80.8 mg/dL
  TG: 27.6 mg/dL
  TP: 6 g/dL
  gamma-GTP: 1.2 IU/L
60 mg/kg, 9 h, dose level High
  TERMINAL_BW: 202.6 g
  APTT: 24.1 s
  Bas: 0%
  Eos: 0.2%
  Fbg: 341.6 mg/dL
  Hb: 14.9 g/dL
  Ht: 42.6%
  Lym: 71%
  MCH: 21.5 pg
  MCHC: 35%
  MCV: 61.4 fL
  Mono: 3.2%
  Neu: 24.2%
  PT: 15.8 s
  Plat: 135.3 x10_4/uL
  RBC: 695 x10_4/ul
  Ret: 5.2%
  WBC: 40.1 x10_2/uL
  KIDNEY_L: 1 g
  KIDNEY_R: 1 g
  KIDNEY_TOTAL: 2 g
  LIVER: 8.8 g
  A/G: 1.2
  ALP: 1484.2 IU/L
  ALT: 34.4 IU/L
  AST: 49.6 IU/L
  BUN: 19.8 mg/dL
  CRE: 0.2 mg/dL
  Ca: 10.7 mg/dL
  Cl: 101.4 meq/L
  DBIL: 0 mg/dL
  GLC: 223.8 mg/dL
  IP: 9.1 mg/dL
  K: 3.6 meq/L
  LDH: 316.2 IU/L
  Na: 142 meq/L
  PL: 154.6 mg/dL
  RALB: 3.4 g/dL
  TBIL: 0.016 mg/dL
  TC: 86.8 mg/dL
  TG: 84.2 mg/dL
  TP: 6.2 g/dL
  gamma-GTP: 1.4 IU/L
[5]
  TERMINAL_BW: 206.5 g
  APTT: 24.1 s
  Bas: 0%
  Eos: 0.6%
  Fbg: 354.4 mg/dL
  Hb: 14.6 g/dL
  Ht: 42.3%
  Lym: 81.6%
  MCH: 21 pg
  MCHC: 34.6%
  MCV: 60.9 fL
  Mono: 2.6%
  Neu: 13.8%
  PT: 16.1 s
  Plat: 130.9 x10_4/uL
  RBC: 695 x10_4/ul
  Ret: 4%
  WBC: 90.8 x10_2/uL
  KIDNEY_L: 1 g
  KIDNEY_R: 1 g
  KIDNEY_TOTAL: 1.9 g
  LIVER: 8.1 g
  A/G: 1.2
  ALP: 1421.6 IU/L
  ALT: 35.4 IU/L
  AST: 61.4 IU/L
  BUN: 18.4 mg/dL
  CRE: 0.2 mg/dL
  Ca: 10.7 mg/dL
  Cl: 109.4 meq/L
  DBIL: 0.004 mg/dL
  GLC: 174 mg/dL
  IP: 7.9 mg/dL
  K: 4.2 meq/L
  LDH: 278.8 IU/L
  Na: 142.8 meq/L
  PL: 141.4 mg/dL
  RALB: 3.1 g/dL
  TBIL: 0.028 mg/dL
  TC: 91.4 mg/dL
  TG: 36.4 mg/dL
  TP: 5.8 g/dL
  gamma-GTP: 1.6 IU/L
